Data reported in publication PMC11247627, “Evaluation of Antibacterial Functionalized Dihydropyrimidine Photoaffinity Probes Toward Mechanism of Action Studies” (ACS Medicinal Chemistry Letters, 2024).
≈ marks a conversion by molar mass, not a printed value. Where “and” joins values, the source holds several entries; their conditions need not be identical. Equal values may be shown once.

Experiments:
Type in all cases: cell-based
[1] = tested on: Staphylococcus aureus ATCC 12600; assay: Antibacterial broth microdilution assay (MIC), methicillin-sensitive S. aureus ATCC 12600; conditions: amount inhibiting >95% of growth (A600), 18 h, suffix 'I' = partial growth inhibition at the value, >95% at higher concentrations; for MIC: Staphylococcus aureus, ATCC12600, read-out: MIC ATCC 12600
Protocol: (§1) These 24 DHP analogues were then screened for inhibition of Staphylococcus aureus growth using microdilution assays. Growth inhibition was examined in methicillin-sensitive S. aureus (ATCC 12600) and two strains of MRSA (ATCC 33591 and ATCC 43300). Antibiotic controls were included in the screen, including carbenicillin, erythromycin, gentamycin, trimethoprim, and vancomycin, and minimum inhibitory concentrations (MICs) were determined for each compound, which were defined as the concentration required to inhibit >95% of bacterial growth (Table 1).
(§2) Antibacterial Microdilution Assay (MIC Determination)
(§3) 1240 The MIC determination assays were performed in a BSL-2 laboratory with appropriate security and biosafety measures. The MICs were determined using a broth microdilution assay closely following the guidelines of the Clinical and Laboratories Standards Institute (CLSI). MICs were determined in duplicate for two biological replicates using 2-fold serial dilutions of test compounds or commercial antibiotics in cation-adjusted Mueller-Hinton broth. The central 60 wells of 96-well plates were 1245 prepared with the compound of interest at the indicated concentration, where 2 µL of the compound in DMSO were added prior to the addition of the culture. Overnight cultures of the different Staphylococcus aureus strains were diluted to provide an initial inoculum of approximately 5 X 10 5 CFU/mL that was delivered to each well in 198 µL of culture (final DMSO concentration of ~1%). Initial inoculum concentrations were verified by plating to count CFU/mL. Each plate was equipped with 1250 experimental controls for full growth (6 wells) and full growth inhibition (6 wells), and all control wells were in the presence of 1% DMSO. The outer 36 wells were filled with 200 µL of culture each to prevent growth effects on the interior 60 wells. The plates were incubated at 37 °C for 18 hours, at which time they were removed from the incubator and were allowed to equilibrate to room temperature for 30 minutes. Absorbance of each well at 600 nm was then read using a microplate reader to 1255 determine the MIC, and visual confirmation of growth inhibition was also performed. If variation was seen in the experimental values, the highest value of two independent trials was listed.

[2] = tested on: Staphylococcus aureus ATCC 43300 (MRSA); assay: Antibacterial broth microdilution assay (MIC), MRSA ATCC 43300; conditions: amount inhibiting >95% of growth (A600), 18 h, suffix 'I' = partial growth inhibition at the value, >95% at higher concentrations; for MIC: Staphylococcus aureus, read-out: MIC ATCC 43300
Protocol: as §1, §2, §3

[3] = tested on: Staphylococcus aureus ATCC 33591 (MRSA); assay: Antibacterial broth microdilution assay (MIC), MRSA ATCC 33591; conditions: amount inhibiting >95% of growth (A600), 18 h, suffix 'I' = partial growth inhibition at the value, >95% at higher concentrations; for MIC: Staphylococcus aureus, read-out: MIC ATCC 33591
Protocol: as §1, §2, §3

Staphylococcus aureus = assay: S. aureus growth inhibition (all three strains or strain not specified); conditions: for antibacterial potency of alkynyl esters compared to their ethyl variants: MIC comparison, Table 3; for MIC: Staphylococcus aureus, all three S. aureus strains or strain not specified, read-out: concentration inhibiting S. aureus growth (MIC)
Protocol: as §1, §2, §3

[4] = MTT cytotoxicity assay, HEK293 viability; conditions: human, HEK293 cells, 24 h treatment
Protocol: After determining that some of our compounds were quite potent for the inhibition of bacterial growth, we next turned toward assessing broader cytotoxicity trends. […] Further, our previously reported derivatives were also screened for red blood cell (RBC) hemolysis, and the assay indicated a lack of RBC lysis at the highest concentrations tested for all compounds (64 μg/mL).[6] […] This indicates it may have secondary mechanisms of cytotoxicity via nonspecific membrane rupturing activity, albeit, at a much higher concentration than its 2 μg/mL MIC. Next, we examined the compounds’ ability to decrease the viability of an immortalized mammalian cell line (HEK293) using a colorimetric MTT assay.[34] To our surprise, all of the compounds screened produced relatively potent cytotoxicity against this cell line. […] We screened a dihydropyrimidine where the guanidine was substituted with a urea (traditional Biginelli reaction derived), and this compound had no bacterial inhibition but continued to have significant mammalian cytotoxicity, further decoupling the antibacterial activity from mammalian cytotoxicity in these cases. Future studies involving the photoaffinity probes will examine the mechanism by which our compounds exert their growth-inhibiting effects in both bacterial and mammalian cells.
Mammalian cytotoxicity was evaluated using a commercially available MTT Cell proliferation assay 1275 (ATCC 30-1010K; Manassas, VA) following the included protocol. Briefly, Human Embryonic Kidney 293 (HEK-293; ATCC CRL-1353) cells were seeded onto 96 well plates (Nunclon Delta; ThermoFisher 167008; Waltham, MA) coated with Poly-D-Lysine (Thermofisher A3890401) at a density of […] cells per well in 80 µL of Eagle's Minimum Essential Medium (EMEM; ATCC 30-2003) with 10% Fetal Bovine Serum (ATCC 30-2021). Cells were incubated at 37 °C in a 5% CO2 atmosphere and allowed to 1280 adhere overnight, and then treated for 24 h with 20 µL of drugs dissolved in PBS with 0.5% DMSO, at concentrations ranging from 1×10^-4 M to 1×10^-9 M. Following treatment, 10 µL of MTT reagent was added to each well and allowed to incubate at 37 °C for 4 h. Then, 100 μL of detergent reagent was added to all wells, and they were stored at room temperature in the dark for 2 h. Absorbance was then read using a multi-mode spectrophotometer (Spectramax i3X; San Jose, CA) at a wavelength of 570 1285 nm. Raw values were normalized to a 0-100% scale using the maximum and minimum responses. To generate dose-response curves and IC50 values, normalized data were plotted against the log of the drug concentrations and fit to nonlinear curve [log(inhibitor) vs. response – variable slope (four parameters)] using GraphPad Prism version 7.05 (GraphPad Software; San Diego, CA).

[5] = tested on: red blood cells (defibrinated sheep blood); assay: Hemolysis assay (red blood cell lysis); conditions: concentration producing >20% hemolysis of red blood cells, 1 h, 37 C
Protocol: 1260 1.5 mL of mechanically defibrinated sheep blood (Hemostat Labs: DSB100) was placed in a microcentrifuge tube and was centrifuged at 10,000 rpm for ten minutes. Following the removal of the supernatant, the cells were resuspended in 1 mL of phosphate-buffered saline (PBS). This process was repeated two more times. The final suspension was diluted ten-fold with PBS and was aliquoted into microcentrifuge tubes containing the compounds which were previously serial diluted in PBS. TritonX 1265 (1% by volume) served as a positive control, while sterile PBS served as a negative control. All samples were incubated at 37 °C and shaken at 200 rpm for 1 hour. After the 1 hour, the samples were centrifuged at 10,000 rpm for 5 minutes and the absorbance of the supernatant was measured via UV spectroscopy at a 540 nm wavelength.

Row | Molecule | MIC [1] | MIC [2] | MIC [3] | also measured
1 | CC1(C)S[C@@H]2[C@H](NC(=O)C(C(=O)O)c3ccccc3)C(=O)N2[C@H]1C(=O)O (stereo partly shown) [carbenicillin, reference compound] | 2 µg/mL (≈ 5.29 µM) | 32 µg/mL (≈ 84.6 µM) | 128 µg/mL (≈ 338 µM) | 
2 | CCOC(=O)C1=C(c2ccccc2)NC(N)=NC1c1cccc(OC)c1 (stereo not shown) [6t] | > 64 µg/mL | > 64 µg/mL | > 64 µg/mL | 
3 | CCOC(=O)C1=C(c2ccccc2)NC(N)=NC1c1ccc(C2(C(F)(F)F)N=N2)cc1 (stereo not shown) [26a] | 4 µg/mL (≈ 9.32 µM) | 4 µg/mL (≈ 9.32 µM) |  | 
4 | CCOC(=O)C1=C(c2ccccc2)NC(N)=NC1c1ccc([N+](=O)[O-])cc1 (stereo not shown) [6c] | 64 µg/mL (≈ 175 µM) | 64 µg/mL (≈ 175 µM) | 64 µg/mL (≈ 175 µM) | 
5 | C#CCCCOC(=O)C1=C(c2ccc(C3(C(F)(F)F)N=N3)cc2)NC(N)=NC1c1ccc(CC(C)C)cc1 (stereo not shown) [26h] | 2 µg/mL (≈ 3.82 µM) | 2 µg/mL (≈ 3.82 µM) |  | antibacterial potency of alkynyl esters compared to their ethyl variants (Staphylococcus aureus): equal potency; MIC (Staphylococcus aureus): 2 µg/mL (≈ 3.82 µM)
6 | CCOC(=O)C1=C(c2ccccc2)NC(N)=NC1c1cccc(C(F)(F)F)c1 (stereo not shown) [6d] | 32 µg/mL (≈ 82.2 µM) | 32 µg/mL (≈ 82.2 µM) | 32 µg/mL (≈ 82.2 µM) | 
7 | CCOC(=O)CC(=O)c1ccc(C2(C(F)(F)F)N=N2)cc1 [compound 11] | > 64 µg/mL | > 64 µg/mL |  | MIC (Staphylococcus aureus): > 64 µg/mL
8 | gentamycin [reference compound] |  |  |  | MIC ATCC 12600 [1]: 4 µg/mL; MIC ATCC 43300 [2]: 128 µg/mL; MIC ATCC 33591 [3]: 4 µg/mL
9 | CCOC(=O)C1=C(CC)NC(N)=NC1c1ccc(CC(C)C)cc1 (stereo not shown) [7c] |  | 4 µg/mL (≈ 12.1 µM) | 8 µg/mL (≈ 24.3 µM) | IC50 at 24 h [4]: 11 µM and 3.5 µg/mL; lysis20 [5]: >64 µg/mL
10 | CCOC(=O)C1=C(c2ccccc2)NC(N)=NC1c1cc(Cl)cc(Cl)c1 (stereo not shown) [6j] | 8 µg/mL (≈ 20.5 µM) | 8 µg/mL (≈ 20.5 µM) |  | IC50 at 24 h [4]: 11 µM and 3.5 µg/mL; lysis20 [5]: >64 µg/mL
11 | CCOC(=O)C1=C(c2ccccc2)NC(N)=NC1c1ccccc1[N+](=O)[O-] (stereo not shown) [6a] | > 64 µg/mL | > 64 µg/mL | > 64 µg/mL | 
12 | C#CCCCOC(=O)C1=C(c2ccccc2)NC(N)=NC1c1ccc(C2(C(F)(F)F)N=N2)cc1 (stereo not shown) [26g] | 4 µg/mL (≈ 8.56 µM) | 4 µg/mL (≈ 8.56 µM) |  | antibacterial potency of alkynyl esters compared to their ethyl variants (Staphylococcus aureus): equal potency
13 | CCOC(=O)C1=C(c2ccc(C3(C(F)(F)F)N=N3)cc2)NC(N)=NC1c1ccc(CC(C)C)cc1 (stereo not shown) [26c] | 2 µg/mL (≈ 4.12 µM) | 2 µg/mL (≈ 4.12 µM) |  | 
14 | CCOC(=O)C1=C(c2ccccc2)NC(N)=NC1c1cc(OC)cc(OC)c1 (stereo not shown) [6v] | > 64 µg/mL | > 64 µg/mL | > 64 µg/mL | 
15 | C#CCCOC(=O)C1=C(c2ccccc2)NC(N)=NC1c1ccc(C2(C(F)(F)F)N=N2)cc1 (stereo not shown) [26e] | 8 µg/mL (≈ 17.6 µM) | 8 µg/mL (≈ 17.6 µM) |  | antibacterial potency of alkynyl esters compared to their ethyl variants (Staphylococcus aureus): 2-fold decreased potency
